# Key:
# [1] = test system: MDA-MB-436 tumor cells; test: PBMC humanized MDA-MB-436 subcutaneous tumor grafting model, tumor growth inhibition; assay type: in vivo, Mus Musculus, NCG; details: for Tumor growth inhibition (%): PG-D24, TGI=(1-T/C)x100% from relative tumor volume, mefuparib HCl 40 mg/kg p.o., Tuoyi 10 mg/kg i.p.; for Tumor volume, Grouping (PG-D0): at grouping, start of treatment, mefuparib HCl 40 mg/kg p.o. qod, Tuoyi 10 mg/kg i.p. q4d; for Tumor volume, Administration (PG-D24): day 24 after grouping, mefuparib HCl 40 mg/kg p.o. qod x 13, Tuoyi 10 mg/kg i.p. q4d x 7
# Description: Species: Mus Musculus, NCG (NOD-Prkdc^em26Cd52II2rg^em26Cd22/N ju), female; weight: 18-22 g; quantity: 55; supplier: GemPharmatech.
# MDA-MB-436 tumor cells (YK-CL-075) were purchased from ATCC. The tumor cells were cultured in the Leibovitz's L-15 medium containing inactivated 10% fetal bovine serum, 100 U/mL of penicillin and 100 μg/mL of streptomycin in a 37° C./5% CO2 incubator, and were passaged every 3 to 4 days when the cells were overgrown. The tumor cells in logarithmic phase were used for in vivo tumor grafting.
# PBMCs (human peripheral blood mononuclear cells) were purchased from […] (Donor#: A0075).
# MDA-MB-436 tumor cells were resuspended in a 1:1 (v:v) mixture of PBS and Matrigel at a concentration of 1×10^8 cells/mL, and were grafted subcutaneously at the right flank of mice at 100 μL/mouse. When the tumor grew to about 1000 mm^3, the tumors were aseptically removed and cut into small pieces having dimensions of about 2 mm×2 mm×2 mm, which were grafted subcutaneously at the right flank of experimental animals. After 2 weeks, PBMCs were resuspended in PBS and grafted into mice in an amount of 2×10^6 cells/mouse. The animals were divided into 4 groups of 10 and treated (the day was recorded as PG-D0) when the tumor grew to about 93 mm^3.
# The long and short diameters of the tumor were measured twice every week using a vernier caliper for calculating the tumor volume, and the calculation formula was: volume=0.5×long diameter×[…].
# The T/C value was calculated from the tumor volume, where T is the mean relative tumor volume (RTV) of each treatment group and C is the mean RTV of the control group. RTV is the ratio of tumor volume after the treatment to that before the treatment. Tumor growth inhibition (TGI, %)=(1−T/C)×100%.
# Inter-group statistical analysis was performed on tumor volume using IBM SPSS Statistics 22.0 software and mixed linear model analysis. Inter-group statistical analysis was performed on tumor weight using One-Way ANOVA analysis, with p<0.05 indicating significant differences.
# [2] = cited from earlier work
# [3] = test system: human-derived CD45+ cells (hCD45 cells); test: FACS assay of hCD45 in peripheral blood 3 weeks after PBMC grafting; assay type: in vivo, Mus Musculus, NCG; details: FIG. 4
# Description: Three weeks after PBMC grafting, peripheral blood of the mice was collected, and the proportion of human-derived CD45^+ cells (hCD45 cells) therein was determined by flow cytometry (FACS). After the end of study, the tumors was removed, weighed and photographed.
# [4] = Water solubility; assay type: physicochemical; details: times higher than that of olaparib
# [5] = test system: BRCA-mutant and HER2-negative advanced breast cancer; details: cited from earlier work
# [6] = patients receiving olaparib monotherapy
compound,measurement,setting,value
"CNCc1ccc(-c2cc3cc(F)cc(C(N)=O)c3o2)cc1.Cl [Mefuparib hydrochloride, mefuparib hydrochloride]",Tumor growth inhibition (%),[1]; hydrochloride,54%
same,Tumor growth inhibition (%),"[1]; listed as mefuparib hydrochloride, hydrochloride",54%
same,"Tumor volume, Grouping (PG-D0)",[1],93 ± 6 mm^3
same,"Tumor volume, Administration (PG-D24)",[1],761 ± 130 mm^3
same,water solubility,[2],> 35 mg/mL
same,percentage median of hCD45 cells in peripheral blood compared with the control group,[3],higher than that in the control group
same,water solubility relative to olaparib,[4],350 times
O=C(c1cc(Cc2n[nH]c(=O)c3ccccc23)ccc1F)N1CCN(C(=O)C2CC2)CC1 [olaparib],grade 3 adverse event: anemia,[5]; associated with olaparib,12%
same,grade 3 adverse event: neutropenia,[5]; associated with olaparib,6%
same,median PFS,[5]; [6],7.0 months
same,response rate,[5]; [6],59.9%
durvalumab,grade 3 adverse event: pancreatitis,[5]; associated with durvalumab,6%
toripalimab [Tuoyi PD-1 monoclonal antibody injection],Tumor growth inhibition (%),[1],29%
same,"Tumor volume, Grouping (PG-D0)",[1],94 ± 7 mm^3
same,"Tumor volume, Administration (PG-D24)",[1],1256 ± 252 mm^3
same,percentage median of hCD45 cells in peripheral blood compared with the control group,[3],higher than that in the control group

# — patent US20230094843A1, “PHARMACEUTICAL COMBINATION FOR TREATING TUMORS AND APPLICATION THEREOF” (FUKANG (SHANGHAI) HEALTH TECHNOLOGY CO., LTD, priority 2019, published 2023)
